Laboratory results: paper PMC11912475 (Journal of Medicinal Chemistry, 2025)

What was measured:
[1] = molecular target: GluN1-GluN2A NMDAR subtype (Homo sapiens, UniProt Q05586+Q12879); experiment: FLIPR/Ca2+ assay, NMDAR GluN1-GluN2A subtype in CHO cells; format: cell-based; details: CHO cells, 10 μM L-glutamate and 10 μM glycine; n.d. = 50% of inhibition could not be reached at the highest concentration used
Protocol: (§1) These compounds were assessed for their effects on specific heterodimeric NMDAR subtypes stably overexpressed in Chinese Hamster Ovary (CHO) cells. The subtypes tested included GluN1-GluN2A, GluN1-GluN2B, GluN1-GluN2C, and GluN1-GluN2D. CHO cells expressing each of the four NMDAR subtypes were incubated with 10 μM L-glutamate, a concentration known to elicit maximal Ca^2+ influx, serving as the stimulus. Intracellular Ca^2+ levels were subsequently measured to determine the extent of NMDAR activation.
(§2) Assay buffer composition was 145 mM NaCl, 5 mM KCl, 2 mM CaCl2, 1 g/Liter D-(+)-glucose, and 20 mM HEPES (pH 7.3 adjusted with NaOH). Cells were plated at a density of 15.000/well in 384 black/clear bottom plates. […] Cells were kept at 30 °C in 5% CO2 incubator for 24 h. Cells were preloaded for 1 h with 2 μM Fluo-4 Ca^2+-sensitive probe, simultaneously with 2.5 mM probenecid, an inhibitor of nonspecific anion transport, and 500 μM ketamine to avoid cytotoxicity. […] Intracellular Ca^2+ level was monitored by FLIPR (excitation wavelength at 470–495 nm, emission wavelength at 515–575 nm) for 10 s before and 5 min after the addition of test items. All test items, including L-glutamate and glycine, were added simultaneously. […] FLIPR data were normalized as 100%, in the presence of 10 μM L-glutamate and 10 μM glycine, while as 0%, in the presence of assay buffer. […] Then, data were normalized by Excel 2013 (Microsoft Office) software, using wells added with 10 μM L-glutamate plus 10 μM glycine (column 23) as high control, and wells added with assay buffer only (column 24) as low control. To assess plate quality, Z′ calculations were performed in Excel. Z′ was calculated according to following equation: Z′ = 1–3(σh + σl)/|μh – μL| where μ and σ are the means and the standard deviations of the means of high (h) and low (l) controls, respectively. Compound concentration–response curves were plotted by Prism 8 GraphPad software, in the different experimental conditions (see Supporting Information). Data were analyzed using least-squares regression fitting, to fit data to a standard four parameters logistic equation using GraphPad Prism10. This regression fitting allowed the calculation of pIC50 and the corresponding SEM.

[2] = molecular target: T1, GluN1-GluN2B NMDAR subtype (Homo sapiens, UniProt Q05586+Q13224); experiment: FLIPR/Ca2+ assay, NMDAR GluN1-GluN2B subtype in CHO cells; format: cell-based; details: CHO cells, 10 μM L-glutamate and 10 μM glycine; n.d. = 50% of inhibition could not be reached at the highest concentration used
T1 construct: host or cells: NR1-2B-CHO cells, constitutive expression
T1 sequence (Q13224 27-1484, other chains not shown): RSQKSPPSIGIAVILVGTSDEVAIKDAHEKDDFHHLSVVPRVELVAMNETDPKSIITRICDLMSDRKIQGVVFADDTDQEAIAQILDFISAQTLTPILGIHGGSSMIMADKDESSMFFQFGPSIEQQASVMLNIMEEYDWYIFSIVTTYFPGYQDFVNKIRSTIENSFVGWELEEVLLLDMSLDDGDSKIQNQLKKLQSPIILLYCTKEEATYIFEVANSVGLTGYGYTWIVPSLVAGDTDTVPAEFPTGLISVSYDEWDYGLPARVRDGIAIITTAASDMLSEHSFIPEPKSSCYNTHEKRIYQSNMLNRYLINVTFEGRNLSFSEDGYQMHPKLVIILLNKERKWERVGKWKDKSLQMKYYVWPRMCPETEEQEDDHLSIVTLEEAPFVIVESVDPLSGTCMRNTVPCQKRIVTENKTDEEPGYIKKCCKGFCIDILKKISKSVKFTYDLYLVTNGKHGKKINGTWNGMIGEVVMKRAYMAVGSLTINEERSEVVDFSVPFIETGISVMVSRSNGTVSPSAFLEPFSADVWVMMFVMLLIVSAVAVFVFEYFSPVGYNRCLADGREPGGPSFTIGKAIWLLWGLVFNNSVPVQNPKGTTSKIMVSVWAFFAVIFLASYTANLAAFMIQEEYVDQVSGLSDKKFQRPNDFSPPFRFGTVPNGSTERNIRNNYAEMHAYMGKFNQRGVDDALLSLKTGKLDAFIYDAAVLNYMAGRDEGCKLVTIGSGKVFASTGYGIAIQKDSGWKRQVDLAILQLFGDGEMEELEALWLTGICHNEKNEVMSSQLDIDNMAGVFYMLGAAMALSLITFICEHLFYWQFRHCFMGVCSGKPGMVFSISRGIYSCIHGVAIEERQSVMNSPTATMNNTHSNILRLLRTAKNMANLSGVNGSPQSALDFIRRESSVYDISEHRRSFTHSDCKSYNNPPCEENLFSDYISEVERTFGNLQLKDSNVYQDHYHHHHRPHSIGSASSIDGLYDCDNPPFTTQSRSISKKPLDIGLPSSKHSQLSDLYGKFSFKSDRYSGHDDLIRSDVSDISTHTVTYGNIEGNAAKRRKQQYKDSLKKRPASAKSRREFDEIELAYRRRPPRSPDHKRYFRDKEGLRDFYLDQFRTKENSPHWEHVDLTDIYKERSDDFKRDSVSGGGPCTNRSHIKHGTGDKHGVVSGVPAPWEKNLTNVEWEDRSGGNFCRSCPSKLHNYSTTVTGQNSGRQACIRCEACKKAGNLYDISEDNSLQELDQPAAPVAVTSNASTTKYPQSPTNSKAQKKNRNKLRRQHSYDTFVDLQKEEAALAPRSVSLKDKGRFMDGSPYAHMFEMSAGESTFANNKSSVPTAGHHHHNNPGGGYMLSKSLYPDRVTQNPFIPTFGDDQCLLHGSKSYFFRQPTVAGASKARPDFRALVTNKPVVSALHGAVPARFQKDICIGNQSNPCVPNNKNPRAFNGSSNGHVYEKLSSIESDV
Protocol: as §1, §2

[3] = molecular target: GluN1-GluN2C NMDAR subtype (Homo sapiens, UniProt Q05586+Q14957); experiment: FLIPR/Ca2+ assay, NMDAR GluN1-GluN2C subtype in CHO cells; format: cell-based; details: CHO cells, 10 μM L-glutamate and 10 μM glycine; n.d. = 50% of inhibition could not be reached at the highest concentration used
Chain of GluN1-GluN2C NMDAR subtype (Q14957 20-1233, other chains not shown): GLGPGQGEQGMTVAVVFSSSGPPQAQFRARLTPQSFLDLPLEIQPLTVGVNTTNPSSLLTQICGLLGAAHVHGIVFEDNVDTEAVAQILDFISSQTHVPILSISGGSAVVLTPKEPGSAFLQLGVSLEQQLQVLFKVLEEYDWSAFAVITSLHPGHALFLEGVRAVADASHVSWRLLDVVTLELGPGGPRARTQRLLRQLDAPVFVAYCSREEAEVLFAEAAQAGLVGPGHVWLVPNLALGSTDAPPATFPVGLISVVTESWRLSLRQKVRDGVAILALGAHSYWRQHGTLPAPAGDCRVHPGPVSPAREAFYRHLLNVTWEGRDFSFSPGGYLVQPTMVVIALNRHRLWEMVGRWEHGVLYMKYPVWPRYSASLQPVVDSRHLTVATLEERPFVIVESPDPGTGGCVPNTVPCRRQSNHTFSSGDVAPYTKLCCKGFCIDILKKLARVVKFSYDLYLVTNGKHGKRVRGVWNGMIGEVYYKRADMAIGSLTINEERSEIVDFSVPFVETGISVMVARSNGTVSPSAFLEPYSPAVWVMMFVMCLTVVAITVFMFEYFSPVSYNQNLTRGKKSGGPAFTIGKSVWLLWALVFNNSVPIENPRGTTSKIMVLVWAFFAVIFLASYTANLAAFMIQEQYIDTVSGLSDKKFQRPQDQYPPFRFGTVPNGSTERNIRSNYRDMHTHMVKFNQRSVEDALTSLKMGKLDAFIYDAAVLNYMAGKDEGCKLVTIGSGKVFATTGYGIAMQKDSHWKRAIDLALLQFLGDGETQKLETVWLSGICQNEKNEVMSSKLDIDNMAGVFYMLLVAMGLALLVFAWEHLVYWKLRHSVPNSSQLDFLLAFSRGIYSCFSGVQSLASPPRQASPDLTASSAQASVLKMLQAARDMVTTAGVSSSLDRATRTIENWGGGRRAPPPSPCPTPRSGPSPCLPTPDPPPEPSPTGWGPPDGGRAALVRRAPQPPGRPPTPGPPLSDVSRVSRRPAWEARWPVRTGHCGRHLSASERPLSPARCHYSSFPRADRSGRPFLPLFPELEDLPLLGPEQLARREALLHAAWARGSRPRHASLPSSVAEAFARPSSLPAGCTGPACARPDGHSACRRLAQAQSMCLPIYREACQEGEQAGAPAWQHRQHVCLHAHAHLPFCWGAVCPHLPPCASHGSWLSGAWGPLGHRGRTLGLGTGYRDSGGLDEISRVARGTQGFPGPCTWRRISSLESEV
Protocol: as §1, §2

[4] = molecular target: GluN1-GluN2D NMDAR subtype (Homo sapiens, UniProt O15399+Q05586); experiment: FLIPR/Ca2+ assay, NMDAR GluN1-GluN2D subtype in CHO cells; format: cell-based; details: CHO cells, 10 μM L-glutamate and 10 μM glycine; n.d. = 50% of inhibition could not be reached at the highest concentration used
Chain of GluN1-GluN2D NMDAR subtype (O15399 28-1336, other chains not shown): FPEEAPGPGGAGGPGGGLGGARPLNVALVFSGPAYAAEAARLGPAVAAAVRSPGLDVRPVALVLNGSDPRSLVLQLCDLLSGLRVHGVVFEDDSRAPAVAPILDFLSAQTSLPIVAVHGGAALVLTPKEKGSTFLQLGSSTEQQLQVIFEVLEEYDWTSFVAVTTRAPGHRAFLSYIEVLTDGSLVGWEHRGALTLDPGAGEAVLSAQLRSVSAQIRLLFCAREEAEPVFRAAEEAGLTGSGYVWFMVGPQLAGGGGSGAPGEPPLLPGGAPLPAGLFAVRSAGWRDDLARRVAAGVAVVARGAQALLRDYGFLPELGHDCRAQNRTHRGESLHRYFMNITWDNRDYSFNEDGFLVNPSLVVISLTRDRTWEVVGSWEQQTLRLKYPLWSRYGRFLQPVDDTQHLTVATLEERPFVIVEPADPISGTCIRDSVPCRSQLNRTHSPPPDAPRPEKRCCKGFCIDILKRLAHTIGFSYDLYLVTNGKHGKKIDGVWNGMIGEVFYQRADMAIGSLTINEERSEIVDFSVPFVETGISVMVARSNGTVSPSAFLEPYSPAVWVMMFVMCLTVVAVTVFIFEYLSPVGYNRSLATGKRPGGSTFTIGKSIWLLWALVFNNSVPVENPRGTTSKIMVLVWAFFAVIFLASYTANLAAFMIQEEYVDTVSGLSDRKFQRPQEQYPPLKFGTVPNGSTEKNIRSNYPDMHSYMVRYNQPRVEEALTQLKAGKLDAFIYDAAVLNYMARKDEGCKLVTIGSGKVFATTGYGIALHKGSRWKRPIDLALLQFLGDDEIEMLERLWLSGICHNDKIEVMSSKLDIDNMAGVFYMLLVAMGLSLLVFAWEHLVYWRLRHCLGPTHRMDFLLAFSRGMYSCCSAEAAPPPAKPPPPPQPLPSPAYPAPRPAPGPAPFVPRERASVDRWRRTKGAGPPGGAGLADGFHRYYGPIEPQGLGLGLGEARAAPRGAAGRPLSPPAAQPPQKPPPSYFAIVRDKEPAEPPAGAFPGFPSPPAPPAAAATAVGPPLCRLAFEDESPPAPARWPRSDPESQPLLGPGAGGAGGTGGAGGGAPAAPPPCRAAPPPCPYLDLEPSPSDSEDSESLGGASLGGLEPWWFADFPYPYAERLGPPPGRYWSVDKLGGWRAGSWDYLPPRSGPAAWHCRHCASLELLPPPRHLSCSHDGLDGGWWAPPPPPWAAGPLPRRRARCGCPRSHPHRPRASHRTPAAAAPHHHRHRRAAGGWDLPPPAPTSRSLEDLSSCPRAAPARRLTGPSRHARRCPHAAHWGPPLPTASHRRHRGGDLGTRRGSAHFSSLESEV
Protocol: as §1, §2

[5] = system: Glutamate, NMDA, Phencyclidine binding site; experiment: Radioligand displacement binding assay, [3H]TCP, NMDA; parameters: species or system Wistar rat
[6] = molecular target: T2, Histamine H1 (Homo sapiens, UniProt P35367); experiment: Radioligand displacement binding assay, [3H]pyrilamine, H1
T2 construct: host or cells: CHO-K1
T2 sequence (P35367 whole entry): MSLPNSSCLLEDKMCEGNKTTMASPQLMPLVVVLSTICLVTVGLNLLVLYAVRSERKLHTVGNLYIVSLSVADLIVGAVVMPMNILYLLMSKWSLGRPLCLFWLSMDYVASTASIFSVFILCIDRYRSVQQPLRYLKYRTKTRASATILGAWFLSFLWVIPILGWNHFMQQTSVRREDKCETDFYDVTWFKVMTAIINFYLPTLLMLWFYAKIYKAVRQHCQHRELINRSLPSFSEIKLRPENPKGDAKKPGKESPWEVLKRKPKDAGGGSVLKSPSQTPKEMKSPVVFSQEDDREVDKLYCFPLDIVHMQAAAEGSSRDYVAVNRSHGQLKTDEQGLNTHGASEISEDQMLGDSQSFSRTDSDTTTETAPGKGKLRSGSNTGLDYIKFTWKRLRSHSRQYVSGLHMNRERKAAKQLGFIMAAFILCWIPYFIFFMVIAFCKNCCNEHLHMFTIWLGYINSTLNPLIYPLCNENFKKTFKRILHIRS

[7] = molecular target: T3, Muscarinic M5 (Homo sapiens, UniProt P08912); experiment: Radioligand displacement binding assay, [3H]N-methylscopolamine, M5
T3 construct: host or cells: CHO-K1
T3 sequence (P08912 1-532): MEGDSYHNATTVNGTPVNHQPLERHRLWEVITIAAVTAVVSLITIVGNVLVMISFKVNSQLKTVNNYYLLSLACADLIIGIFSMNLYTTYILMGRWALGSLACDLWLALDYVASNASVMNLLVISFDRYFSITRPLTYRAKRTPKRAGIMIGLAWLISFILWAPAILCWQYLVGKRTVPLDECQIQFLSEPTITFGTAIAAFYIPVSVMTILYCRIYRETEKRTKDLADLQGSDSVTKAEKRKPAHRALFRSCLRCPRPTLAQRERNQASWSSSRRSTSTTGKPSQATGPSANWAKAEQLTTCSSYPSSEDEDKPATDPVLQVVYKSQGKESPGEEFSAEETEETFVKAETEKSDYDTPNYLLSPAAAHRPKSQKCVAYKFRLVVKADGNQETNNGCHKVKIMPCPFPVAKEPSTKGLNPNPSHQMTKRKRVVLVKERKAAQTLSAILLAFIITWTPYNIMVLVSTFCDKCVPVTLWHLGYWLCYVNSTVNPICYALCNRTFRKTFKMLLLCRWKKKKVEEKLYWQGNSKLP

[8] = molecular target: T4, μ opioid receptor (MOP) (Homo sapiens, UniProt P35372); experiment: biochemical; format: binding; details: for inhibition at 0.3 µM / inhibition at 3 µM: read-out: % inhibition of binding, MOP
T4 construct: host or cells: CHO-K1

[9] = molecular target: T5, Serotonin 5-HT1A (Homo sapiens, UniProt P08908); experiment: Radioligand displacement binding assay, [3H]8-OH-DPAT, 5-HT1A
T5 construct: host or cells: CHO-K1
T5 sequence (P08908 1-422): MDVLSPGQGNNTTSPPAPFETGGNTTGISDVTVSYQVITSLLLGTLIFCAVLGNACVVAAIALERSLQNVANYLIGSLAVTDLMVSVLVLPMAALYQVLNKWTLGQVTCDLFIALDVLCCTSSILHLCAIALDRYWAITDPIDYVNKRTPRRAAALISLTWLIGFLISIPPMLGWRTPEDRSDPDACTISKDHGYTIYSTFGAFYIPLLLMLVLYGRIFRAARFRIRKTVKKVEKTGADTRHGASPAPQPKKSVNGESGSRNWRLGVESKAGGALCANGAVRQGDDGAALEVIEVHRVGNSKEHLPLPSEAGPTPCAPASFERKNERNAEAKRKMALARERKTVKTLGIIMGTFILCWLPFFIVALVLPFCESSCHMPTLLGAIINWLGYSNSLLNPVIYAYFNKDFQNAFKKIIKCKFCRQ

[10] = molecular target: T6, Serotonin 5-HT2A (Homo sapiens, UniProt P28223); experiment: Radioligand displacement binding assay, [3H]ketanserin, 5-HT2A
T6 construct: host or cells: CHO-K1

[11] = molecular target: T7, Serotonin 5-HT2C (Homo sapiens, UniProt P28335); experiment: Radioligand displacement binding assay, [3H]mesulergine, 5-HT2C
T7 construct: host or cells: CHO-K1
T7 sequence (P28335 33-458): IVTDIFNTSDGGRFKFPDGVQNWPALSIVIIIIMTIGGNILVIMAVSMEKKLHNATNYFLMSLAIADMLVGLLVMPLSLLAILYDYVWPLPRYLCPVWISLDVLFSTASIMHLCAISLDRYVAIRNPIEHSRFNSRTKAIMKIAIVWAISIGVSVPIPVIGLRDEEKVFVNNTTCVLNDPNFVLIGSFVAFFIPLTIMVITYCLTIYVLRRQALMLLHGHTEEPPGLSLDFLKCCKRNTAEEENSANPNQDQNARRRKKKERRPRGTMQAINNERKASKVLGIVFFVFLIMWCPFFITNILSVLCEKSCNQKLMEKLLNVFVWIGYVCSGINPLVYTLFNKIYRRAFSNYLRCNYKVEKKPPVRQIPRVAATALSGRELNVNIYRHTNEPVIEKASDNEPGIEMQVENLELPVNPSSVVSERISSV

[12] = molecular target: T8, Serotonin 5-HT5A (Homo sapiens, UniProt P47898); experiment: Radioligand displacement binding assay, [3H]LSD, 5-HT5A
T8 construct: host or cells: CHO-K1

[13] = molecular target: T9, Serotonin 5-HT7 (Homo sapiens, UniProt P34969); experiment: Radioligand displacement binding assay, [3H]LSD, 5-HT7
T9 construct: host or cells: CHO-K1

[14] = molecular target: T10, Sigma σ1 (Homo sapiens, UniProt Q99720); experiment: Radioligand displacement binding assay, [3H]pentazocine, sigma σ1
T10 construct: Sigma σ1; Source: Human Jurkat cells; host or cells: Jurkat

[15] = molecular target: T11, Norepinephrine transporter NET (Homo sapiens, UniProt P23975); experiment: Radioligand displacement binding assay, [125I]RTI-55, NET
T11 construct: host or cells: MDCK
T11 sequence (P23975 whole entry): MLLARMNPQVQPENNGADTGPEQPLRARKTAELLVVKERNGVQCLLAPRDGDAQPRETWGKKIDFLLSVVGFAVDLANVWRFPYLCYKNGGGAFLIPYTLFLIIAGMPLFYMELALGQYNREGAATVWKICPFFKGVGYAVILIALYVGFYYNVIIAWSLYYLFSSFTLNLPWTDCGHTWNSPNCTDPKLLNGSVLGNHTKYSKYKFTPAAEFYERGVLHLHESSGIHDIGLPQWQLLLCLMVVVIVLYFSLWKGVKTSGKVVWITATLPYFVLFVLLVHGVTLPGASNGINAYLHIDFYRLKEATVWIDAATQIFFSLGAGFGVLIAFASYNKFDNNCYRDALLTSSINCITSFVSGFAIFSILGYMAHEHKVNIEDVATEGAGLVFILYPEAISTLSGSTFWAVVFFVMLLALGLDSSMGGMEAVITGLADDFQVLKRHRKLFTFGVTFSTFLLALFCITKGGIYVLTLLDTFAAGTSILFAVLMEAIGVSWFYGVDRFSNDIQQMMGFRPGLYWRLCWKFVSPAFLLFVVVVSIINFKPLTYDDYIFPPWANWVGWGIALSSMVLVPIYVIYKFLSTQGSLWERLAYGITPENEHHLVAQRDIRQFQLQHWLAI

[16] = molecular target: T12, Serotonin transporter SERT (Homo sapiens, UniProt P31645); experiment: Radioligand displacement binding assay, [3H]paroxetine, SERT
T12 construct: host or cells: HEK-293

## CC[C@@H](O)C(C[C@@H](C)NC)(c1ccccc1)c1ccccc1 [(3R,6R)-NML, (3R,6R)-6-(methylamino)-4,4-diphenylheptan-3-ol]
[1]
  pIC50 (mean ± SEM) GluN1-GluN2A: 5.0 ± 0.081
[2]
  pIC50 (mean ± SEM) GluN1-GluN2B: 4.8 ± 0.055
[3]
  pIC50 (mean ± SEM) GluN1-GluN2C: 5.0 ± 0.048
[4]
  pIC50 (mean ± SEM) GluN1-GluN2D: 5.0 ± 0.052
[5]; 1 μM
  % inhibition of binding, NMDA: 17%
[5]; 10 μM
  % inhibition of binding, NMDA: 57%
[5]; Wistar rat cerebral cortex, 4.0 nM [3H]TCP
  pKi (mean ± SEM) [3H]TCP, NMDA: 5.56 ± 0.07
[6]
  inhibition at 10 µM: 15%
  inhibition at 30 µM: 20%
[7]
  inhibition at 1 µM: 15%
  inhibition at 10 µM: 43%
[8]
  pKi (mean ± SEM) [3H]diprenorphine, MOP: 5.64 ± 0.09
  inhibition at 0.3 µM: 4%
  inhibition at 3 µM: 11%
[9]
  inhibition at 0.3 µM: -9%
  inhibition at 3 µM: -10%
[10]
  inhibition at 0.3 µM: 0%
  inhibition at 3 µM: -3%
[11]
  inhibition at 0.3 µM: 18%
  inhibition at 3 µM: 16%
[12]
  inhibition at 1 µM: 13%
  inhibition at 10 µM: 63%
[13]
  inhibition at 1 µM: 4%
  inhibition at 10 µM: 5%
[14]
  inhibition at 0.3 µM: 4%
  inhibition at 3 µM: 33%
[15]
  inhibition at 1 µM: -2%
  inhibition at 10 µM: 14%
[16]
  inhibition at 1 µM: 18%
[16]; 10 μM
  % inhibition of binding, SERT: displaced
  inhibition at 10 µM: 69%

## CC[C@@H](O)C(C[C@@H](C)N)(c1ccccc1)c1ccccc1 [(3R,6R)-DNML, (3R,6R)-6-amino-4,4-diphenylheptan-3-ol]
[1]
  pIC50 (mean ± SEM) GluN1-GluN2A: 4.8 ± 0.060
[2]
  pIC50 (mean ± SEM) GluN1-GluN2B: 4.6 ± 0.054
[3]
  pIC50 (mean ± SEM) GluN1-GluN2C: 4.7 ± 0.050
[4]
  pIC50 (mean ± SEM) GluN1-GluN2D: 4.7 ± 0.058
[5]; 1 μM
  % inhibition of binding, NMDA: 12%
[5]; 10 μM
  % inhibition of binding, NMDA: 54%
[6]
  inhibition at 10 µM: 3%
  inhibition at 30 µM: 9%
[7]
  inhibition at 1 µM: -1%
  inhibition at 10 µM: 33%
[8]
  inhibition at 0.3 µM: -7%
  inhibition at 3 µM: 9%
[9]
  inhibition at 0.3 µM: 0%
  inhibition at 3 µM: 4%
[10]
  inhibition at 0.3 µM: 6%
  inhibition at 3 µM: 8%
[11]
  inhibition at 0.3 µM: 7%
  inhibition at 3 µM: 16%
[12]
  inhibition at 1 µM: 4%
  inhibition at 10 µM: -4%
[13]
  inhibition at 1 µM: 12%
  inhibition at 10 µM: 8%
[14]
  inhibition at 0.3 µM: 14%
  inhibition at 3 µM: 47%
[15]
  inhibition at 1 µM: 4%
  inhibition at 10 µM: 6%
[16]
  inhibition at 1 µM: -1%
[16]; 10 μM
  inhibition at 10 µM: 20%

## CC[C@H](O)C(C[C@@H](C)N)(c1ccccc1)c1ccccc1 [(3S,6R)-DNML, (3S,6R)-6-amino-4,4-diphenylheptan-3-ol]
[1]
  pIC50 (mean ± SEM) GluN1-GluN2A: 4.5 ± 0.031
[2]
  pIC50 (mean ± SEM) GluN1-GluN2B: 4.4 ± 0.042
[3]
  pIC50 (mean ± SEM) GluN1-GluN2C: 4.6 ± 0.038
[4]
  pIC50 (mean ± SEM) GluN1-GluN2D: 4.7 ± 0.061
[5]; 1 μM
  % inhibition of binding, NMDA: 8%
[5]; 10 μM
  % inhibition of binding, NMDA: 38%
[6]
  inhibition at 10 µM: 15%
  inhibition at 30 µM: 28%
[7]
  inhibition at 1 µM: 12%
  inhibition at 10 µM: 39%
[8]
  inhibition at 0.3 µM: 9%
  inhibition at 3 µM: 23%
[9]
  inhibition at 0.3 µM: -11%
  inhibition at 3 µM: -1%
[10]
  inhibition at 0.3 µM: 9%
  inhibition at 3 µM: 10%
[11]
  inhibition at 0.3 µM: 9%
  inhibition at 3 µM: 27%
[12]
  inhibition at 1 µM: -1%
  inhibition at 10 µM: 11%
[13]
  inhibition at 1 µM: 8%
  inhibition at 10 µM: 5%
[14]
  inhibition at 0.3 µM: -4%
  inhibition at 3 µM: 18%
[15]
  inhibition at 1 µM: 0%
  inhibition at 10 µM: 22%
[16]
  inhibition at 1 µM: 15%
[16]; 10 μM
  inhibition at 10 µM: 36%
